Results published in US20110053947A1, “Arylchalcogenoarylalkyl-substituted imidazolidine-2,4-diones, process for preparation thereof, medicaments comprising these compounds and use thereof” (SANOFI-AVENTIS, priority 2008, published 2011).
Structures can show the parent of a compound that is named as a salt. Where two headings read alike, the source gives them in different places.

Tests used:
[1] = biological target: T1, cannabinoid 1 receptor (hCB1R) (Homo sapiens, UniProt P21554); test: In vitro functional assay with recombinant cells (FLIPR), CB1; format: cell-based; conditions: intracellular Ca2+ change after reference agonist, 20 min preincubation
T1 construct: expressed in transfected cells; host or cells: HEK293
T1 sequence (P21554 whole entry): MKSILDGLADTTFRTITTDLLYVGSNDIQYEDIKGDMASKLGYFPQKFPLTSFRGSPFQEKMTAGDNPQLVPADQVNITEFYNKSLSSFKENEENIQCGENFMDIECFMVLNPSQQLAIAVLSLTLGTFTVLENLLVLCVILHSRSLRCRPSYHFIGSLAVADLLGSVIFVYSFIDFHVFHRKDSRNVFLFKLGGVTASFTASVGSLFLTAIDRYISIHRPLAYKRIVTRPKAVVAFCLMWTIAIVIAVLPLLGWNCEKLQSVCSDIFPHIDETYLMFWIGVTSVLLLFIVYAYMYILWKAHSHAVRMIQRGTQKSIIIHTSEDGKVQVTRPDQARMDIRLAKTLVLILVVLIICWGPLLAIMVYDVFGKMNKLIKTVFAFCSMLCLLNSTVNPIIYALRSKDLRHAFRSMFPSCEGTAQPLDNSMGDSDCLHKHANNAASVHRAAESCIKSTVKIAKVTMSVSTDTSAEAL
Procedure: (§1) In vitro functional assays with recombinant cells:
(§2) Function-testing assays were performed by means of the FLIPR technique (“Fluorometric Imaging Plate Reader”, Molecular Devices Corp.).
(§3) To this end, ligand-induced changes in the intracellular concentration of Ca^2+ in recombinant HEK293 cells, which expressed both a cannabinoid receptor (CB1 or CB2) and G-protein Galphal6, were determined. For the studies, cells were sown into 96-well microtiter plates (60 000 cells/well) and left to grow overnight. The medium was removed and the cells were incubated in buffer which contained the fluorescent dye Fluo-4. After this loading with dye, the cells were washed, test substance was added dissolved in buffer, the mixture was incubated for 20 minutes, a known cannabinoid receptor agonist as a reference agonist was added in buffer and, finally, the changes in the intracellular Ca^2+ concentration were measured in the FLIPR unit.
Results were presented as the percentage change relative to the control (0%: analogous experiment without test substance and without reference agonist, i.e. only with buffer; 100%: analogous experiment without test substance, but with reference agonist in excess), and used to calculate dose/action curves, and IC50 values were determined.
The values of the functional assay compared to the cannabinoid 1 receptor including illustrative selectivities compared to the cannabinoid 2 receptor can be taken from table 1 which follows.

[2] = biological target: T2, cannabinoid 2 receptor (hCB2R) (Homo sapiens, UniProt P34972); test: In vitro functional assay with recombinant cells (FLIPR), CB2; format: cell-based; conditions: recombinant HEK293 cells expressing CB2 and G-protein; intracellular Ca2+ change after reference agonist, 20 min preincubation; read-out: hCB2R: FLIPR; IC50
T2 construct: expressed in transfected cells; host or cells: HEK293
T2 sequence (P34972 whole entry): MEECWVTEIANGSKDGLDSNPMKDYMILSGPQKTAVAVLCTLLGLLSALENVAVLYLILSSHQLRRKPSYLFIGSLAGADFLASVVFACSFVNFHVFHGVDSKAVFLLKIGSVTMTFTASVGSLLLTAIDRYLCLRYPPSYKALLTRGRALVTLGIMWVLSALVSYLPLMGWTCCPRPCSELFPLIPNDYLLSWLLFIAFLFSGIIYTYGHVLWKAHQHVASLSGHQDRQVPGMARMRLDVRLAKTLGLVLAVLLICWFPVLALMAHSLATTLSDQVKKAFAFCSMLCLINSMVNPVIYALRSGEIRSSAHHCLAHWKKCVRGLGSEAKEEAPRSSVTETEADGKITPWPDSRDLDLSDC
Procedure: as §1, §2, §3

[3] = biological target: T3, CHO-K1/cannabinoid CB1 (hCB1R) (Homo sapiens, UniProt P21554); test: Binding to the CB1 receptor ([3H]-SR141716A displacement); conditions: [3H]-SR141716A 0.5 nM; Ki from IC50 and Kd by Cheng-Prusoff; average of double determination; read-out: hCB1R; Bindung Ki
T3 construct: expressed in transfected cells; host or cells: CHO-K1
T3 sequence (P21554 whole entry): as the sequence (P21554 whole entry) above
Procedure: Binding to the CB 1 Receptor:
Test compounds: The compounds (3 μl, 10 mM, 100% DMSO), pipetted into 96-well PP microtiter plates, were diluted with 27 μl of 100% DMSO (dimethyl sulfoxide). Proceeding from this solution, further 3-fold dilution steps were undertaken by transferring 10 μl in each case to a new PP microtiter plate and adding a further 20 μl of 100% DMSO. In each case 6 μA of these solutions were transferred into new 96-well PP microtiter plates and made up with 144 μl of assay buffer. The end concentrations ranged from 10 μM to 0.005 μM. Negative control: AM 251, dissolved in assay buffer with 1% DMSO, was added to the dilution series in the microtiter plates as a control. The end concentration was 1 μM. Blank control: assay buffer with 1% DMSO was added to the dilution series of the microtiter plates as a blank control.
Summary of the Assay Parameters:
The values were calculated using the corrected raw data.
The values reported were obtained as average values of a double determination. The IC50 values were calculated from the measurements with the program Xlfit, formula 205. Ki values were obtained from the IC50 and Kd values utilizing the Cheng-Prusoff equation: […]
Literature: Cheng, Y.-C., and Prusoff, W. H. (1973) Biochem. Pharmacol 22, 3099-3108 Results: Ki values of example compounds; Table 2: […]

[4] = recombinant HEK293 cells expressing CB1 and G-protein, read-out: hCB1R: FLIPR, IC50
[5] = hCB1R: FLIPR, IC50, recombinant HEK293 cells expressing CB1 and G-protein

SMILES	Ki [3] [nM]	other results
CC1(C)C(=O)N(c2ccc(C#N)c(C(F)(F)F)c2)C(=O)N1Cc1ccccc1NC(=O)Nc1ccc(S(=O)(=O)O)cc1 [Example 2, 4-(3-{2-[3-(4-cyano-3-trifluoromethylphenyl)-5,5-dimethyl-2,4-dioxoimidazolidin-1-ylmethyl]phenyl}ureido)benzenesulfonic acid]		IC50 [1, 4]: 220 nM; IC50 [2]: > 10000 nM
CC1(C)C(=O)N(c2ccc(C#N)c(C(F)(F)F)c2)C(=O)N1Cc1ccccc1NC(=O)Nc1ccc(C(=O)O)cc1 [Example 4, 4-(3-{2-[3-(4-Cyano-3-trifluoromethylphenyl)-5,5-dimethyl-2,4-dioxo-imidazolidin-1-ylmethyl]phenyl}ureido)benzoic acid]		IC50 [1, 4]: 109 nM; IC50 [2]: > 10000 nM
CC1(C)C(=O)N(c2ccc(C#N)c(C(F)(F)F)c2)C(=O)N1Cc1ccccc1NC(=O)Nc1ccc(C#N)cc1 [Example 6, 1-(4-cyanophenyl)-3-{2-[3-(4-cyano-3-trifluoromethylphenyl)-5,5-dimethyl-2,4-dioxoimidazolidin-1-ylmethyl]phenyl}urea]		IC50 [1, 5]: 11 nM; IC50 [2]: > 10000 nM
CC1(C)C(=O)N(c2ccc(C#N)c(C(F)(F)F)c2)C(=O)N1Cc1ccccc1NC(=O)Nc1ccc(F)cc1F [Example 7, 1-{2-[3-(4-cyano-3-trifluoromethylphenyl)-5,5-dimethyl-2,4-dioxoimidazolidin-1-ylmethyl]phenyl}-3-(2,4-difluorophenyl)urea]	73	
CC1(C)C(=O)N(c2ccc(C#N)c(C(F)(F)F)c2)C(=O)N1Cc1ccccc1NC(=O)Nc1cccc(C#N)c1 [Example 8, 1-(3-cyanophenyl)-3-{2-[3-(4-cyano-3-trifluoromethylphenyl)-5,5-dimethyl-2,4-dioxoimidazolidin-1-ylmethyl]phenyl}urea]		IC50 [1, 5]: 35 nM; IC50 [2]: > 10000 nM
CC1(C)C(=O)N(c2ccc(C#N)c(C(F)(F)F)c2)C(=O)N1Cc1ccccc1NC(=O)Nc1ccccc1 [Example 9, 1-{2-[3-(4-cyano-3-trifluoromethylphenyl)-5,5-dimethyl-2,4-dioxoimidazolidin-1-ylmethyl]phenyl}-3-phenylurea]	32	
C[S+]([O-])c1ccc(NC(=O)Nc2ccccc2CN2C(=O)N(c3ccc(C#N)c(C(F)(F)F)c3)C(=O)C2(C)C)cc1 (stereo not shown) [Example 12, 1-{2-[3-(4-cyano-3-trifluoromethylphenyl)-5,5-dimethyl-2,4-dioxoimidazolidin-1-ylmethyl]phenyl}-3-(4-methanesulfinylphenyl)urea]	11	
CC1(C)C(=O)N(c2ccc(C#N)c(C(F)(F)F)c2)C(=O)N1Cc1ccccc1NC(=O)Nc1ccc(S(C)(=O)=O)cc1 [Example 13, 1-{2-[3-(4-cyano-3-trifluoromethylphenyl)-5,5-dimethyl-2,4-dioxoimidazolidin-1-ylmethyl]phenyl}-3-(4-methanesulfonylphenyl)urea]	7	
CC1(C)C(=O)N(c2ccc(C#N)c(C(F)(F)F)c2)C(=O)N1Cc1ccccc1NS(=O)(=O)Cc1ccc(F)cc1F [Example 15, N-{2-[3-(4-cyano-3-trifluoromethylphenyl)-5,5-dimethyl-2,4-dioxoimidazolidin-1-ylmethyl]phenyl}-C-(2,4-difluorophenyl)methanesulfonamide]	58	
CC1(C)C(=O)N(c2ccc(C#N)c(C(F)(F)F)c2)C(=O)N1Cc1ccc(F)cc1NC(=O)Nc1ccc(C(=O)O)cc1 [Example 18, 4-(3-{2-[3-(4-Cyano-3-trifluoromethylphenyl)-5,5-dimethyl-2,4-dioxoimidazolidin-1-ylmethyl]-5-fluorophenyl}ureido)benzoic acid]	68	
CC1(C)C(=O)N(c2ccc(C#N)c(C(F)(F)F)c2)C(=O)N1Cc1ccc(F)cc1NC(=O)Nc1cc(Cl)nc(Cl)c1 [Example 21, 1-{2-[3-(4-cyano-3-trifluoromethylphenyl)-5,5-dimethyl-2,4-dioxoimidazolidin-1-ylmethyl]-5-fluorophenyl}-3-(2,6-dichloropyridin-4-yl)urea]	34	
CC1(C)C(=O)N(c2ccc(F)c(C(F)(F)F)c2)C(=O)N1Cc1ccc(F)cc1NC(=O)Nc1ccc(N)cc1 [Example 23, 1-(4-Aminophenyl)-3-{5-fluoro-2-[3-(4-fluoro-3-trifluoromethylphenyl)-5,5-dimethyl-2,4-dioxoimidazolidin-1-ylmethyl]phenyl}urea hydrochloride]	17	
CC1(C)C(=O)N(c2ccc(F)c(C(F)(F)F)c2)C(=O)N1Cc1ccc(F)cc1NC(=O)Nc1ccc(S(N)(=O)=O)cc1 [Example 24, 4-(3-{5-fluoro-2-[3-(4-fluoro-3-trifluoromethylphenyl)-5,5-dimethyl-2,4-dioxoimidazolidin-1-ylmethyl]phenyl}ureido)benzenesulfonamide]	9	
CCOP(=O)(OCC)c1ccc(NC(=O)Nc2cc(F)ccc2CN2C(=O)N(c3ccc(F)c(C(F)(F)F)c3)C(=O)C2(C)C)cc1 [Example 32, Diethyl [4-(3-{5-fluoro-2-[3-(4-fluoro-3-trifluoromethylphenyl)-5,5-dimethyl-2,4-dioxoimidazolidin-1-ylmethyl]phenyl}ureido)phenyl]phosphonate]	40	
COC(=O)c1ccc(NC(=O)Nc2cc(F)ccc2CN2C(=O)N(c3ccc(C#N)c(C(F)(F)F)c3)C(=O)C2(C)C)nc1 [Example 42, methyl 6-(3-{2-[3-(4-cyano-3-trifluoromethylphenyl)-5,5-dimethyl-2,4-dioxoimidazolidin-1-ylmethyl]-5-fluorophenyl}ureido)nicotinate]	35	
CC1(C)C(=O)N(c2ccc(C#N)c(C(F)(F)F)c2)C(=O)N1Cc1ccc(F)cc1NC(=O)Nc1ccnc(O)c1 [Example 43, 1-{2-[3-(4-cyano-3-trifluoromethylphenyl)-5,5-dimethyl-2,4-dioxoimidazolidin-1-ylmethyl]-5-fluorophenyl}-3-(2-hydroxypyridin-4-yl)urea]	17	IC50 [1, 4]: 27 nM
CCS(=O)(=O)c1ccc(NC(=O)Nc2cc(F)ccc2CN2C(=O)N(c3ccc(C#N)c(C4CC4)c3)C(=O)C2(C)C)cc1 [Example 45, 1-{2-[3-(4-Cyano-3-cyclopropylphenyl)-5,5-dimethyl-2,4-dioxoimidazolidin-1-ylmethyl]-5-fluorophenyl}-3-(4-ethanesulfonylphenyl)urea]	6	
COC(=O)CS(=O)(=O)c1ccc(NC(=O)Nc2cc(F)ccc2CN2C(=O)N(c3ccc(C#N)c(C4CC4)c3)C(=O)C2(C)C)cc1 [Example 46, Methyl [4-(3-{2-[3-(4-cyano-3-cyclopropylphenyl)-5,5-dimethyl-2,4-dioxoimidazolidin-1-ylmethyl]-5-fluorophenyl}ureido)benzenesulfonyl]acetate]	7	
COC(=O)CSc1ccc(NC(=O)Nc2cc(F)ccc2CN2C(=O)N(c3ccc(C#N)c(C(F)(F)F)c3)C(=O)C2(C)C)cc1 [Example 49]	11	IC50 [1, 4]: 2 nM
COC(=O)c1ccc(NC(=O)Nc2cc(F)ccc2CN2C(=O)N(c3ccc(F)c(C(F)(F)F)c3)C(=O)C2(C)C)cc1 [Example 59, methyl 4-(3-{5-fluoro-2-[3-(4-fluoro-3-trifluoromethylphenyl)-5,5-dimethyl-2,4-dioxoimidazolidin-1-ylmethyl]phenyl}ureido)benzoate]	29	
CC1(C)C(=O)N(c2ccc(F)c(C(F)(F)F)c2)C(=O)N1Cc1ccc(Cl)cc1NC(=O)Nc1ccc(S(N)(=O)=O)cc1 [Example 69, 4-(3-{5-chloro-2-[3-(4-fluoro-3-trifluoromethylphenyl)-5,5-dimethyl-2,4-dioxoimidazolidin-1-ylmethyl]phenyl}ureido)benzenesulfonamide]		IC50 [1, 4]: 11 nM
COc1ccc(CN2C(=O)N(c3ccc(F)c(C(F)(F)F)c3)C(=O)C2(C)C)c(NC(=O)Nc2ccc(S(N)(=O)=O)cc2)c1 [Example 70, 4-(3-{2-[3-(4-fluoro-3-trifluoromethylphenyl)-5,5-dimethyl-2,4-dioxoimidazolidin-1-ylmethyl]-5-methoxyphenyl}ureido)benzenesulfonamide]		IC50 [1, 4]: 14 nM
